Reference: US5034553A, “Platinum-(II)-diamine complex, method for the preparation of this compound, preparation with an anti-tumour action which contains this compound and also shaped preparations with an anti-tumour action” (Nederlandse Organisatie Voor …, priority 1988, dated 1991)

Tests used:
L1210 murine leukaemia = experiment: Activity against L1210 murine leukaemia; type: in vivo, CDF1 mice; settings: for % T/C: once on day 1
Method: The platinum complex is investigated for anti-tumour action against L1210 murine leukaemia. CDF1 mice with a weight of 20 g were inoculated intraperitoneally with 10^6 ascitic cells of L1210 leukaemia. The administration of the active substance was started the day following the intraperitoneal implantation of the tumour. The complex is administered in diverse amounts by intraperitoneal injections. Groups of 6 mice are used for each dose and they are treated with a single dose of the complex on the treatment day. A group of ten control mice treated with a physiological saline solution was included in the experiment. The groups treated with cis-platinum are included as positive comparisons. The mice were weighed before the treatment and again on the fifth or sixth day and the average change in weight is taken as a measure of the toxicity. The animals are assessed daily for mortality and the experiments are ended after 30 days. The tumour activity is determined on the basis of % T/C, which is the ratio of mean survival time of the group treated with the active substance relative to the mean survival time of the comparison group treated with a physiological saline solution times 100. The mice treated with physiological saline solution usually have a mean survival time of 7 days. A compound is regarded as active when this gives a % T/C≥125%.

[1] = system: M5076 reticulum cell sarcoma; experiment: Action against M5076 sarcoma, intraperitoneal implantation, i.p. treatment; type: in vivo, BDF1 mice
Method: (§1) The complex was also assessed for anti-tumour action against M5076 sarcoma. BDF1 mice, 8 per group, were inoculated intraperitoneally with 10^6 cells of M5076 or subcutaneously with a fragment of a M5076 tumour.
(§2) Mice with an intraperitoneal tumour were treated intraperitoneally starting 13 days after the implantation and this was continued on days 17, 21 and 25, resulting in 4 treatments in all. Mice with an implanted subcutaneous tumour were treated intravenously starting 5 days after the implantation and again on days 9, 13 and 17. Therefore a total of four treatments. Four doses of the complex were tested. A comparison group treated with physiological saline solution and groups treated with cs-platinum are included in this experiment. The mice were assessed daily for survival and the tests were ended after 75 to 80 days. The anti-tumour action was determined on the basis of a) mean survival time of the mice treated with the active substance relative to that of the untreated mice (% T/C) and b) the mean time for subcutaneously implanted tumours to reach a weight of 1 gram in mice treated with active substance relative to the untreated mice (T-C). A compound is regarded as active if this gives a T/C≥125% or is T-C≥13 days.

[2] = system: M5076 reticulum cell sarcoma; experiment: Action against M5076 sarcoma, subcutaneous implantation, i.v. treatment; type: in vivo, BDF1 mice; settings: for T-C: time to 1 gram tumour
Method: as §1, §2

A2780/124 = settings: for IC50 ratio: IC50 A2780/124 versus IC50 A2780
Method: (§3) The cytotoxic action of the platinum complex was evaluated in vitro in a cell line panel consisting of B16-F10 murine melanoma, HCT-116 human colon carcinoma, A2780 human ovary carcinoma and 2 sub-lines of A2780 which are resistant to cis-platinum, i.e. A2780/124 and A2780/PPD respectively. The B16-F10 cell line was kept in a culture of Eagle's Minimum Essential Medium (MEM) with Earle's salts (Gibco) enriched with 2 mmol L-glutamine, 2.06 mmol sodium pyruvate, insulin (0.26 units/ml), penicillin/streptomycin (10 units/ml and 10 mcg/ml respectively), MEM non-essential amino acids (0.6% by weight Gibco) and 10% foetal bovine serum (Hyclone). The HCT-116 cells were cultured in McCoy's 5A medium (modified Gibco) which was supplemented with 2 mmol L-glutamine, 0.12 mmol L-serine, 0.17 mmol asparagine, 1.5 mmol sodium pyruvate, MEM essential amino acids (0.625%, Gibco), MEM non-essential amino acids (0.67%, Gibco), MEM vitamins (0.6%, Gibco), foetal calf serum (10%, Hyclone) and penicillin/streptomycin (10 units/ml and 10 mcg/ml). The A2780 cell lines are cultured in RPMI medium 1640 (Gibco Laboratories) supplemented with foetal calf serum (10% Hyclone), 2 mmol L-glutamine and penicillin/streptomycin. All cell lines are incubated at 37° C. in an incubator with 5% by volume CO2 with a high atmospheric humidity.
(§4) Logarithmically growing cells are harvested by mild trypsinisation and 4,000 cells are added to a microtitre plate with 96 wells (Costar). The plates are incubated for one night in 5% by volume CO2 at 37° C. to allow the cells to adhere to the plate. The cells are then treated with the platinum complex or cis-platinum and incubated for 72 hours. […] Formalin (10% by weight) in a phosphate-buffered physiological saline solution is added and the cells are fixed for 10 minutes. […] The spot is rendered soluble with 0.2 ml 0.1M acetic acid/ethanol (1:1) and the optical densities are determined with the aid of a Dynatech MR 600 microtitre plate reader. […]

A2780/DDP = settings: for IC50 ratio: IC50 A2780/DDP versus IC50 A2780
Method: as §3, §4

[3] = B. Rosenberg et al., Nature 222 (1969); cited from earlier work
B16-F10 murine melanoma = experiment: In vitro cytotoxicity, B16-F10; type: cell-based; settings: B16-F10, 72 hours
Method: (§5) The cytotoxic action of the platinum complex was evaluated in vitro in a cell line panel consisting of B16-F10 murine melanoma, HCT-116 human colon carcinoma, A2780 human ovary carcinoma and 2 sub-lines of A2780 which are resistant to cis-platinum, i.e. A2780/124 and A2780/PPD respectively. The B16-F10 cell line was kept in a culture of Eagle's Minimum Essential Medium (MEM) with Earle's salts (Gibco) enriched with 2 mmol L-glutamine, 2.06 mmol sodium pyruvate, insulin (0.26 units/ml), penicillin/streptomycin (10 units/ml and 10 mcg/ml respectively), MEM non-essential amino acids (0.6% by weight Gibco) and 10% foetal bovine serum (Hyclone). The HCT-116 cells were cultured in McCoy's 5A medium (modified Gibco) which was supplemented with 2 mmol L-glutamine, 0.12 mmol L-serine, 0.17 mmol asparagine, 1.5 mmol sodium pyruvate, MEM essential amino acids (0.625%, Gibco), MEM non-essential amino acids (0.67%, Gibco), MEM vitamins (0.6%, Gibco), foetal calf serum (10%, Hyclone) and penicillin/streptomycin (10 units/ml and 10 mcg/ml). […]
(§6) Logarithmically growing cells are harvested by mild trypsinisation and 4,000 cells are added to a microtitre plate with 96 wells (Costar). […] The spot is rendered soluble with 0.2 ml 0.1M acetic acid/ethanol (1:1) and the optical densities are determined with the aid of a Dynatech MR 600 microtitre plate reader. […]

[4] = system: HCT-116 human colon carcinoma; experiment: In vitro cytotoxicity, HCT-116; type: cell-based; settings: HCT116, 72 hours
Method: as §5, §6

[5] = system: A2780 human ovary carcinoma; experiment: In vitro cytotoxicity, A2780; type: cell-based; settings: A2780, 72 hours
Method: as §5, §6

[6] = system: B16-F10, HCT-116, A2780, A2780/124 and A2780/DDP; type: cell-based, murine and human
Method: as §5, §6

[7] = 2.4 mg/kg i.v. on days 5, 9, 13 and 17
[8] = 4.8 mg/kg i.v. on days 5, 9, 13 and 17
[9] = 4 mg/kg i.v. on days 5, 9, 13 and 17
[10] = 6 mg/kg i.v. on days 5, 9, 13 and 17
[11] = 8 mg/kg i.v. on days 5, 9, 13 and 17
[12] = 12 mg/kg i.v. on days 5, 9, 13 and 17

For `N.N.[Cl][Pt][Cl]` [Cis-platinum, cis-diamine-dichloroplatinum, reference compound], the “maximum % T/C” value (L1210 murine leukaemia; 6-10 mg/kg) was 138%, the “% T/C” value ([1]; 2.4 mg/kg i.p. on days 13, 17, 21 and 25) was 164% and the “% T/C” value ([1]; 4.8 mg/kg i.p. on days 13, 17, 21 and 25) was 166%. For the same compound, the “% T/C” value [2, 7] was 144%, the T-C [2, 7] was 23.3 days and the “% T/C” value [2, 8] was 141%. It also gave a T-C [2, 8] of 31.8 days, an IC50 ratio (A2780/124) of 10 and an IC50 ratio (A2780/DDP) of 12.6. The “anti-tumour activity” value [3] was “very strong anti-tumour activity”.

Work on `CC(C)C(CN)(CN)C(C)C.O=C([O-])C(=O)[O-].[Pt+2]` [TNO-56, 2,2-Diisopropyl-1,3-diaminopropaneoxalatoplatinum (II)] yielded an IC50 (B16-F10 murine melanoma) of 43 µg/mL, an IC50 [4] of 115 µg/mL and an IC50 [5] of 221 µg/mL. For the same compound, the “% T/C” value (L1210 murine leukaemia; 10 mg/kg i.p.) was 125%, the “% T/C” value (L1210 murine leukaemia; 20 mg/kg i.p.) was 144% and the “% T/C” value (L1210 murine leukaemia; 40 mg/kg i.p.) was 88%. The “activity” value (L1210 murine leukaemia; 10 and 20 mg/kg i.p., active if % T/C≥125%) was “active”, the “% T/C” value ([1]; 4 mg/kg i.p. on days 13, 17, 21 and 25) was 139% and the “% T/C” value ([1]; 6 mg/kg i.p. on days 13, 17, 21 and 25) was 154%. For the same compound, the “% T/C” value ([1]; 8 mg/kg i.p. on days 13, 17, 21 and 25) was 161%, the “% T/C” value ([1]; 12 mg/kg i.p. on days 13, 17, 21 and 25) was 193% and the “activity” value ([1]; all doses tested, i.p.) was “active”. For the same compound, the “% T/C” value [2, 9] was 119%, the T-C [2, 9] was 7.8 days and the “% T/C” value [2, 10] was 135%. For the same compound, the T-C [2, 10] was 14.0 days, the “% T/C” value [2, 11] was 140% and the T-C [2, 11] was 21.5 days. For the same compound, the “% T/C” value [2, 12] was 144%, the T-C [2, 12] was 26.8 days and the “% T/C and tumour inhibition” value ([2]; dose dependence, i.v.) was “dosage-dependent increase in % T/C and tumour inhibition”. For the same compound, the “cytotoxic action” value [6] was “cytotoxic for all five cell lines”, the IC50 (A2780/124; A2780/124, 72 hours) was 155 µg/mL and the IC50 ratio (A2780/124) was 0.7. It also gave an IC50 (A2780/DDP; A2780/DDP, 72 hours) of 110 µg/mL and an IC50 ratio (A2780/DDP) of 0.5.
